# Data from ChEMBL document CHEMBL1909046, “DrugMatrix in vitro pharmacology data”.
# Key:
# [1] = target: Beta-3 adrenergic receptor (Homo sapiens, UniProt P13945); experiment: DRUGMATRIX: Adrenergic beta3 radioligand binding (ligand: [125I] Cyanopindolol); assay type: cell membranes, HEK293, Membrane; conditions: hek293; Not Active = under 50% inhibition at 10 µM
# [2] = target: T1, Angiotensin-converting enzyme (Oryctolagus cuniculus, UniProt P12822); assay type: tissue-based, Lung;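 note: enzymatic inhibition of angiotensin-converting enzyme measured with FAPGG as the substrate; in other assays of this panel Not Active means under 50% inhibition at 10 µM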
# T1 sequence (P12822 whole entry): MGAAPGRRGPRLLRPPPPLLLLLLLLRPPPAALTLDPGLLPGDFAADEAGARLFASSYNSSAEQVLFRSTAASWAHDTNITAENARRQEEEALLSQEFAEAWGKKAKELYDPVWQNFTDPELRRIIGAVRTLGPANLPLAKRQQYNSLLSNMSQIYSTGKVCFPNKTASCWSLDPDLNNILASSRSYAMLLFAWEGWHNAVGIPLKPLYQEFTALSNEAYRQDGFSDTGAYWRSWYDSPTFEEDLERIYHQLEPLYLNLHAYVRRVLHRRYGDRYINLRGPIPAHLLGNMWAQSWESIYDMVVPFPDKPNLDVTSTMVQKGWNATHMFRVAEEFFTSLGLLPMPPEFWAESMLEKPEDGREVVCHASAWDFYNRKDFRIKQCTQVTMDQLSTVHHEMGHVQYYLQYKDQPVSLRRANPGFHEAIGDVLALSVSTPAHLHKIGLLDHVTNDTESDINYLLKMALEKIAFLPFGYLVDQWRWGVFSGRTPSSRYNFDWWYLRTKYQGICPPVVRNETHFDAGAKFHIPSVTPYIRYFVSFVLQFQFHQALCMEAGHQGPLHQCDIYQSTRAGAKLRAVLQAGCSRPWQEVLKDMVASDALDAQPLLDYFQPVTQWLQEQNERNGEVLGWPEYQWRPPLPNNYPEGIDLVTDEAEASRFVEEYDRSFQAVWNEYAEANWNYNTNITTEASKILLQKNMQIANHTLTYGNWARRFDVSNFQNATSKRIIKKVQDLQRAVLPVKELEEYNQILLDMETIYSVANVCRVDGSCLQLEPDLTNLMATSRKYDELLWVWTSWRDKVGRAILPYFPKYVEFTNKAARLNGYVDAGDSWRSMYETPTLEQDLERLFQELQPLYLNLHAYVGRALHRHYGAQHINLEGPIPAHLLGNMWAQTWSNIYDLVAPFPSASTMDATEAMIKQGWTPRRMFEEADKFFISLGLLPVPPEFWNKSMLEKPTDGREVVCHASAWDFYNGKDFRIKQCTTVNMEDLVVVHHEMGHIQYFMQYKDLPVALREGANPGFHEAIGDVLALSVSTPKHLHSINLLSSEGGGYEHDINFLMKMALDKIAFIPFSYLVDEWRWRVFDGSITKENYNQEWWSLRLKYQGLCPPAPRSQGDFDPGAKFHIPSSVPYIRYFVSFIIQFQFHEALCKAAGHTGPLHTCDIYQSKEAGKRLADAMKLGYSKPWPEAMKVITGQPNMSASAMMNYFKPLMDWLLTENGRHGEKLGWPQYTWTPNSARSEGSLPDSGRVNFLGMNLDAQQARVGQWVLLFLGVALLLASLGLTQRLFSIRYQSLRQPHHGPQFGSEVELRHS
# [3] = target: Tyrosine-protein kinase Fyn (Homo sapiens, UniProt P06241); experiment: biochemical; assay type: cell-based, Insect cells;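 note: enzymatic inhibition of Fyn kinase activity measured with Poly(Glu:Tyr) as the phosphorylation substrate; in other assays of this panel Not Active means under 50% inhibition at 10 µM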
# Sequence of Tyrosine-protein kinase Fyn (P06241 whole entry): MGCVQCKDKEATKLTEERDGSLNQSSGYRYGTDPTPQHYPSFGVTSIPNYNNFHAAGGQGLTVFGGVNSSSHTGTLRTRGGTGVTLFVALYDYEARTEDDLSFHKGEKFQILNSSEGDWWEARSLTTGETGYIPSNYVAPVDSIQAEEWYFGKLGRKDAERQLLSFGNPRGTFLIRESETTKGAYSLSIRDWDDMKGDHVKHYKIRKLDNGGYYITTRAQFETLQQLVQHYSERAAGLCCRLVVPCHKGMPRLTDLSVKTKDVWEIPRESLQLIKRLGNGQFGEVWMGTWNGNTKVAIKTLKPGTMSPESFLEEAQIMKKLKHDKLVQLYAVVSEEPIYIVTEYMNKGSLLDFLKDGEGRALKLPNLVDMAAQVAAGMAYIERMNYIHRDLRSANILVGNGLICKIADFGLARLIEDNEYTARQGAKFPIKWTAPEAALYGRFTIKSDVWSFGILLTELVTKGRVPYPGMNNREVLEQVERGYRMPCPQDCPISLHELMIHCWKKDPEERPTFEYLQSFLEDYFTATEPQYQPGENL
# [4] = target: T2, 3-hydroxy-3-methylglutaryl-coenzyme A reductase (Homo sapiens, UniProt P04035); design: species or system Escherichia coli;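 note: enzyme inhibition assay of HMG-CoA reductase using radiolabeled [14C]HMG-CoA as substrate; in other assays of this panel Not Active means under 50% inhibition at 10 µM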
# T2 sequence (P04035 whole entry): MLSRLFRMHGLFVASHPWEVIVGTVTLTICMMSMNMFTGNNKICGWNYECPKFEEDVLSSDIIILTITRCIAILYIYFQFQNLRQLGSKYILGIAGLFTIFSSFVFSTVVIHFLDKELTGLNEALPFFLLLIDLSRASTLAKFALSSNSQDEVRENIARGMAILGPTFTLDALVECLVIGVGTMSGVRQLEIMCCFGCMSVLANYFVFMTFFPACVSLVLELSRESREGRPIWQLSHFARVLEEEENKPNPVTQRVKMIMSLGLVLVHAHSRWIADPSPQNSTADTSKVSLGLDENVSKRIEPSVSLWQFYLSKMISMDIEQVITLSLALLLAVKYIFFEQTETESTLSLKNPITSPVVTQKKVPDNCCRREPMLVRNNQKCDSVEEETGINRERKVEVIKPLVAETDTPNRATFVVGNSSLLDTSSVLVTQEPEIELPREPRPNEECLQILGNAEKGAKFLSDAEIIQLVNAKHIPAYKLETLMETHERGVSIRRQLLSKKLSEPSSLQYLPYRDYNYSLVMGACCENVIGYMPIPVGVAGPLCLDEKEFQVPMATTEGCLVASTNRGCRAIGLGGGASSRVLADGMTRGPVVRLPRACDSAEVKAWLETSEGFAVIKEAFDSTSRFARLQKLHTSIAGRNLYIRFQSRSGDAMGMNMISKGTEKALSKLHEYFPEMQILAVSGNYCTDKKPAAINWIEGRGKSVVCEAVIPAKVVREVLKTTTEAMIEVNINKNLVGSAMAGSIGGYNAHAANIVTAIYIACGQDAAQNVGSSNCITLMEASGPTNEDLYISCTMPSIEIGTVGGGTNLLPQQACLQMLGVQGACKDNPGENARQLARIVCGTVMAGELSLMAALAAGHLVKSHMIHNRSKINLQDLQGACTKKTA
# [5] = DRUGMATRIX: GABAA, Chloride Channel, TBOB radioligand binding (ligand: [3H] TBOB); assay type: cell membranes, Rattus norvegicus, Wistar, Cerebral cortex, Membrane; conditions: Not Active = under 50% inhibition at 10 µM
# [6] = DRUGMATRIX: Purinergic P2X radioligand binding (ligand: [3H] alpha, beta-Methylene-ATP); assay type: cell membranes, Oryctolagus cuniculus, New Zealand albino, Urinary bladder, Membrane; conditions: Not Active = under 50% inhibition at 10 µM
# Estrogen receptor beta = Estrogen receptor beta (Homo sapiens, UniProt Q92731); conditions: sf9; note: in other assays of this panel Not Active means under 50% inhibition at 10 µM
# Sequence of Estrogen receptor beta (Q92731 whole entry): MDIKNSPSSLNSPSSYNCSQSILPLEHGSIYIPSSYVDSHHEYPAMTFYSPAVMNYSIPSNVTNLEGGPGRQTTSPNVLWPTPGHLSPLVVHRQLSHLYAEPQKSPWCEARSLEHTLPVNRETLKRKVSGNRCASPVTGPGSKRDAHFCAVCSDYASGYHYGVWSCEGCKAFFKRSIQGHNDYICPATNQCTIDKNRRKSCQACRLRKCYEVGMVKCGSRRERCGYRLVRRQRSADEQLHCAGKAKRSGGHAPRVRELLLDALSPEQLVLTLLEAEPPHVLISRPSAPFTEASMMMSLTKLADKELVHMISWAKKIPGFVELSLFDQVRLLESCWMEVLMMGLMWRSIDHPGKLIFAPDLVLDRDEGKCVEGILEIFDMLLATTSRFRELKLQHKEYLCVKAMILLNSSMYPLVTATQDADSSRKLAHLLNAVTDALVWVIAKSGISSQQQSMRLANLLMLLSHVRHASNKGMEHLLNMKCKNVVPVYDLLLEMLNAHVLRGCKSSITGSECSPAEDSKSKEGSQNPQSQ
# Sequence of Beta-3 adrenergic receptor (P13945 whole entry): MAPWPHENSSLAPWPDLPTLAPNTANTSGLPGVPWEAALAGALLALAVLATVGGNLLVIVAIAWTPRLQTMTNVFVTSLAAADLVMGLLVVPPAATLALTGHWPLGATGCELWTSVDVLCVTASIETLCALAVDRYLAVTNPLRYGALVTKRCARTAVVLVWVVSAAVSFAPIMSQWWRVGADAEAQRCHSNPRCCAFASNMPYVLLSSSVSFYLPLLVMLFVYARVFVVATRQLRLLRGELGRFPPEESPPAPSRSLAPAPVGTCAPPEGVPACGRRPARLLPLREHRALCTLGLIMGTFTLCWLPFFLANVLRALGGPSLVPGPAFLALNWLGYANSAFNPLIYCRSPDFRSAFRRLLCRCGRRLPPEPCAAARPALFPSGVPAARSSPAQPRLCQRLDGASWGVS
Molecule,IC50 [1],IC50 [2],IC50 ([3]; insect cells),IC50 [4],IC50 [5],Ki [5],IC50 [6],Ki [6],IC50 (Estrogen receptor beta),IC50 ([3]; read-out: IC50) [nM],Ki [1],Ki [2],"IC50 ([3]; insect cells, read-out: IC50) [nM]",Ki [4],Ki (Estrogen receptor beta),Ki ([3]; insect cells)
NC(=O)C[S+]([O-])C(c1ccccc1)c1ccccc1 (stereo not given) [MODAFINIL],Not Active,Not Active,Not Active,Not Active,Not Active,Not Active,Not Active,Not Active,Not Active,–,–,–,–,–,–,–
CCN(CC)CCOCCC1=CCC2CC1C2(C)C (stereo not given) [MYRTECAINE],Not Active,Not Active,Not Active,Not Active,Not Active,Not Active,Not Active,Not Active,Not Active,–,–,–,–,–,–,–
O=C(O)c1cccnc1Nc1cccc(C(F)(F)F)c1 [NIFLUMIC ACID],Not Active,Not Active,Not Active,Not Active,Not Active,Not Active,Not Active,Not Active,Not Active,–,–,–,–,–,–,–
O=C(N/N=C/c1ccc([N+](=O)[O-])o1)c1cc([N+](=O)[O-])cc([N+](=O)[O-])c1O [NIFURSOL],Not Active,Not Active,Not Active,Not Active,Not Active,Not Active,Not Active,Not Active,Not Active,–,–,–,–,–,–,–
COC(=O)Nc1nc2ccc(C(=O)c3cccs3)cc2[nH]1 [NOCODAZOLE],Not Active,Not Active,Not Active,Not Active,Not Active,Not Active,Not Active,Not Active,Not Active,–,–,–,–,–,–,–
CC(=O)O[C@H]1C(=O)[C@@]2(C)[C@H]([C@H](OC(=O)c3ccccc3)[C@]3(O)C[C@H](OC(=O)[C@H](O)[C@@H](NC(=O)c4ccccc4)c4ccccc4)C(C)=C1C3(C)C)[C@]1(OC(C)=O)CO[C@@H]1C[C@@H]2O [PACLITAXEL],Not Active,Not Active,–,Not Active,Not Active,Not Active,Not Active,Not Active,Not Active,23900,–,–,–,–,–,–
C[n+]1ccc(-c2cc[n+](C)cc2)cc1.[Cl-].[Cl-] [PARAQUAT DICHLORIDE],Not Active,Not Active,Not Active,Not Active,Not Active,Not Active,Not Active,Not Active,Not Active,–,–,–,–,–,–,–
CCn1cc(C(=O)O)c(=O)c2cnc(N3CCCC3)nc21 [PIROMIDIC ACID],Not Active,Not Active,Not Active,Not Active,Not Active,Not Active,Not Active,Not Active,Not Active,–,–,–,–,–,–,–
C[n+]1ccccc1/C=N/O.[Cl-] [PRALIDOXIME CHLORIDE],Not Active,Not Active,Not Active,Not Active,Not Active,Not Active,Not Active,Not Active,Not Active,–,–,–,–,–,–,–
COc1cc2nc(N3CCN(C(=O)c4ccco4)CC3)nc(N)c2cc1OC [PRAZOSIN],Not Active,Not Active,Not Active,Not Active,Not Active,Not Active,Not Active,Not Active,Not Active,–,–,–,–,–,–,–
C[C@]12C=CC(=O)C=C1CC[C@@H]1[C@@H]2[C@@H](O)C[C@@]2(C)[C@H]1CC[C@]2(O)C(=O)CO [PREDNISOLONE],Not Active,Not Active,Not Active,Not Active,Not Active,Not Active,Not Active,Not Active,Not Active,–,–,–,–,–,–,–
CC(=O)[C@H]1[C@H](C#N)C[C@H]2[C@@H]3CC=C4C[C@@H](O)CC[C@]4(C)[C@H]3CC[C@@]21C [PREGNENOLONE CARBONITRILE],Not Active,Not Active,Not Active,Not Active,Not Active,Not Active,Not Active,Not Active,Not Active,–,–,–,–,–,–,–
CCCN(CCC)S(=O)(=O)c1ccc(C(=O)O)cc1 [PROBENECID],Not Active,Not Active,Not Active,Not Active,Not Active,Not Active,Not Active,Not Active,Not Active,–,–,–,–,–,–,–
CCCOc1ccc(C(=O)OCCN(CC)CC)cc1N [PROPARACAINE],Not Active,Not Active,Not Active,Not Active,Not Active,Not Active,Not Active,Not Active,Not Active,–,–,–,–,–,–,–
CC(C)c1cccc(C(C)C)c1O [PROPOFOL],Not Active,Not Active,Not Active,Not Active,Not Active,Not Active,Not Active,Not Active,Not Active,–,–,–,–,–,–,–
C[C@@H]1O[C@@H](O[C@@H]2C=C3CC[C@@H]4[C@H](CC[C@]5(C)[C@@H](c6ccc(=O)oc6)CC[C@]45O)[C@@]3(C)CC2)[C@H](O)[C@H](O)[C@H]1O [PROSCILLARIDIN],Not Active,Not Active,Not Active,Not Active,Not Active,Not Active,Not Active,Not Active,Not Active,–,–,–,–,–,–,–
Oc1cccc(O)c1O [PYROGALLOL],Not Active,Not Active,–,Not Active,Not Active,Not Active,Not Active,Not Active,Not Active,997,–,–,–,–,–,–
AURANOFIN,Not Active,Not Active,–,Not Active,Not Active,Not Active,Not Active,Not Active,Not Active,–,Not Active,Not Active,1200,Not Active,Not Active,–
GADOPENTETATE DIMEGLUMINE,Not Active,Not Active,Not Active,Not Active,Not Active,Not Active,Not Active,Not Active,Not Active,–,Not Active,Not Active,–,Not Active,Not Active,Not Active
